These results are taken from patent US10005767B2, “Compositions and methods for inhibition of the JAK pathway” (Rigel Pharmaceuticals, Inc., priority 2009, dated 2018).

Usually IC50 stands for the concentration needed to halve the response being measured.

The test system of one test is human primary T-cells, IL-2 stimulated proliferation (JAK-1 and JAK-3 dependent; reported as JAK3 activity). Briefly: Human primary T-cell proliferation stimulated by IL-2 (Example 3). Format: cell-based. To be noted: Homo sapiens, T-cell, tested under conditions described in Example 3 (IL-2 stimulated human primary T-cell proliferation); read-out: ability to inhibit JAK3 activity, IC50 range (Table V). Put shortly: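 Peripheral-blood human T-cells pre-activated via TCR/CD28, IL-2-starved overnight, then cultured 72 h at 37 °C with compound in Yssel's medium containing IL-2 (80 U/mL in cell suspension). Proliferation read as viable-cell ATP by CellTiter-Glo luminescence; reduction versus control taken as JAK pathway inhibition.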
For the compound `COc1cc(Nc2ncc(C)c(Nc3ccc4oc(=O)[nH]c4c3)n2)cc(C(C)=O)c1` [Compound I-229, 5-(2-(3-acetyl-5-methoxyphenylamino)-5-methylpyrimidin-4-ylamino)benzo[d]oxazol-2(3H)-one], the half-inhibitory concentration (IC50) was less than 500 nM.

With `CNC(C)c1cc(Nc2ncc(C)c(Nc3ccc4oc(=O)[nH]c4c3)n2)cc(OC)c1` (stereo not drawn) [Compound I-236, 5-(2-(3-methoxy-5-(1-(methylamino)ethyl)phenylamino)-5-methylpyrimidin-4-ylamino)benzo[d]oxazol-2(3H)-one], the half-maximal inhibitory concentration (IC50) was less than 500 nM.

As for `Cc1cnc(Nc2ccc3c(c2)C(=O)CCCC3)nc1Nc1ccc2oc(=O)[nH]c2c1` [IV-2, N4-(benzo[d]oxazol-2(3H)-on-5-yl)-N2-(6,7,8,9-tetrahydro-5H-benzo[7]annulen-5-on-3-yl)-5-methylpyrimidine-2,4-diamine], the IC50 was less than 500 nM.

In the case of `Cc1cnc(Nc2cc(C)c(OCCN3CCOCC3)c(C)c2)nc1Nc1ccc2oc(=O)[nH]c2c1` [Compound I-459, 5-(2-(3,5-dimethyl-4-(2-morpholinoethoxy)phenylamino)-5-methylpyrimidin-4-ylamino)benzo[d]oxazol-2(3H)-one], the IC50 was less than 500 nM.

`Cc1cnc(Nc2cnc(N3CC4CC3CN4C(=O)OC(C)(C)C)c(F)c2)nc1Nc1ccc2oc(=O)[nH]c2c1` (stereo not drawn) [II-49, 5-{3-Fluoro-5-[5-methyl-4-(2-oxo-2,3-dihydro-benzooxazol-5-ylamino)-pyrimidin-2-ylamino]-pyridin-2-yl}-2,5-diaza-bicyclo[2.2.1]heptane-2-carboxylic acid tert-butyl ester]: the half-maximal inhibitory concentration (IC50) was less than 500 nM.

Staying with this test, now noted: tested under conditions described in Example 3 (IL-2 stimulated human primary T-cell proliferation); read-out: ability to inhibit JAK3 activity, IC50 range (Table V).
Consider `CCOc1cc(Nc2ncc(C)c(Nc3ccc4oc(=O)[nH]c4c3)n2)ccc1OC(F)F` [Compound I-313, N2-(4-difluoromethoxy-3-ethoxy)phenyl-5-methyl-N4-(2-oxo-2,3-dihydro-1,3-benzoxazol-5-yl)-2,4-pyrimidinediamine], for which the half-inhibitory concentration (IC50) was less than 500 nM.

For `O=c1[nH]c2cc(Nc3nc(Nc4cccc(N5CCOCC5)c4)ncc3F)ccc2o1` [Compound I-47, N4-(benzo[d]oxazol-2(3H)-on-5-yl)-N2-((3-morpholinyl)phenyl)-5-fluoropyrimidine-2,4-diamine], the IC50 is less than 500 nM.

`Cc1cnc(Nc2cccc(S(N)(=O)=O)c2)nc1Nc1ccc2c(c1)oc(=O)n2C` [Compound I-63, N2-((3-aminosulfonyl)phenyl)-N4-(3-methyl-2-oxo-2,3-dihydrobenzo[d]oxazol-6-yl)-5-methylpyrimidine-2,4-diamine]: the half-inhibitory concentration (IC50) was less than 500 nM.

For the compound `Cc1cc(Nc2ncc(C)c(Nc3ccc4oc(=O)[nH]c4c3)n2)ccc1N1CCN2CCCCC2C1` (stereo not drawn) [Compound I-122, N4-(benzo[d]oxazol-2(3H)-on-5-yl)-N2-((4-(dihydro-1H-pyrido[1,2-a]pyrazin-2(6H,7H,8H,9H,9aH)-yl)-3-methyl)phenyl)-5-methylpyrimidine-2,4-diamine], the IC50 is less than 500 nM.

Consider `Cc1cnc(Nc2cc(C)c(C)c(C)c2)nc1Nc1ccc2oc(=O)n(COP(=O)(O)O)c2c1` [Compound I-406, 5-methyl-N4-[3-(phosphonooxy)methyl-2-oxo-2,3-dihydro-1,3-benzoxazol-5-yl]-N2-(3,4,5-trimethyl)phenyl-2,4-pyrimidinediamine], for which the IC50 fell in the range of 500 to 5000 nM.

With `Cc1cc(Nc2ncc(C)c(Nc3ccc4oc(=O)[nH]c4c3)n2)cc(OC(F)(F)F)c1` [Compound I-379, 5-methyl-N2-(3-methyl-5-trifluoromethoxy)phenyl-N4-(2-oxo-2,3-dihydro-1,3-benzoxazol-5-yl)-2,4-pyrimidinediamine], the 50% inhibitory concentration (IC50) was less than 500 nM.

As to `Cc1ccc(Nc2ncc(C)c(Nc3ccc4oc(=O)[nH]c4c3)n2)cc1OC(F)F` [Compound I-390, N2-(3-difluoromethoxy-4-methyl)phenyl-5-methyl-N4-(2-oxo-2,3-dihydro-1,3-benzoxazol-5-yl)-2,4-pyrimidinediamine], the IC50 is less than 500 nM.
